Here are results for one compound from ChEMBL document CHEMBL6096728, “Simultaneous Induction of Immunogenic Pyroptosis and PD-L1 Downregulation by One Single Photosensitizer for Synergistic Cancer Photoimmunotherapy” (J Med Chem, 2025).

The nature of data set [1]: Toxicity in BALB/c mouse assessed as effect on kidney at 25 mg/kg, iv measured after 14 days under light irradiation of 300 mW.cm/2 at 400 to 700nm measured after 5 mins. Type of data set: organism-based. The note with it: in vivo, 336 h, 0.7 µM, time 14 day.
Data set [2] can be described thus: Toxicity in BALB/c mouse assessed as effect on spleen at 25 mg/kg, iv measured after 14 days under light irradiation of 300 mW.cm/2 at 400 to 700nm measured after 5 mins. The data set is classed as organism-based. The note with it: in vivo, 336 h, 0.7 µM, time 14 day.

`O=c1cc2sc3cc(N4CCNCC4)ccc3nc-2c2ccccc12`: the Activity entry in data set [1] and in data set [2] was “Non-toxic” each time.
